Measured values published in patent EP0140492B1 (WARNER-LAMBERT COMPANY, priority 1983, dated 1985).
Like-named read-outs stand apart in the source and are kept apart here. Marks after values point to notes of the source that are not given here.

Assay: Plasma levels of isoxicam and bioavailability parameters after a single oral dose to beagle dogs
Format: in vivo
Conditions: for Plasma levels of isoxicam / Plasma levels of isoxicam, Mean: 100 mg/dog oral (isoxicam equivalents); for AUC(0-inf) / half-life / Cmax / Tmax: dog, in vivo, po, 100 mg; for Tmax: read-out: Tmax; for Plasma levels of isoxicam, Mean: mean of dogs
Description: The range for the individual animals was 51.4 to 63.0 µg/ml with three animals having a peak time of two hours and the final animal at eight hours. These plasma levels were considerably higher when compared to micronized isoxicam. […] Peak plasma concentrations for individual animals ranged from […] between three and six hours postdose.
Areas under the plasma concentrations versus time curve (AUC^0-∞) were calculated using the trapezoidal rule and extrapolated to infinity with the appropriate elimination rate constants.

[1] = Mean of four dogs, oral 100 mg (free acid equivalents)
[2] = dog 1930, oral 100 mg (free acid equivalents)
[3] = dog 1942, oral 100 mg (free acid equivalents)
[4] = dog 117668, oral 100 mg (free acid equivalents)
[5] = dog 120064, oral 100 mg (free acid equivalents)

Cc1cc(NC(=O)C2=C(O)c3ccccc3S(=O)(=O)N2C)no1 [arginine isoxicamate, L-arginine isoxicamate]
Plasma levels of isoxicam (dog 1930, time 0.5 h postdose): 29.6 µg/mL
Plasma levels of isoxicam (dog 1930, time 1.0 h postdose): 43.4 µg/mL
Plasma levels of isoxicam (dog 1930, time 2.0 h postdose): 51.4 µg/mL
Plasma levels of isoxicam (dog 1930, time 3.0 h postdose): 47.5 µg/mL
Plasma levels of isoxicam (dog 1930, time 4.0 h postdose): 48.9 µg/mL
Plasma levels of isoxicam (dog 1930, time 6.0 h postdose): 48.3 µg/mL
Plasma levels of isoxicam (dog 1930, time 8.0 h postdose): 42.6 µg/mL
Plasma levels of isoxicam (dog 1930, time 12.0 h postdose): 37.8 µg/mL
Plasma levels of isoxicam (dog 1930, time 24.0 h postdose): 32.8 µg/mL
Plasma levels of isoxicam (dog 1930, time 32.0 h postdose): 25.2 µg/mL
Plasma levels of isoxicam (dog 1930, time 48.0 h postdose): 25.0 µg/mL
Plasma levels of isoxicam (dog 1930, time 72.0 h postdose): 14.6 µg/mL
Plasma levels of isoxicam (dog 1930, time 96.0 h postdose): 10.2 µg/mL
Plasma levels of isoxicam (dog 1930, time 192.0 h postdose): 1.56 µg/mL
Plasma levels of isoxicam (dog 1930, time 240.0 h postdose): 0.89 µg/mL
Plasma levels of isoxicam (dog 1942, time 0.5 h postdose): 7.99 µg/mL
Plasma levels of isoxicam (dog 1942, time 1.0 h postdose): 28.1 µg/mL
Plasma levels of isoxicam (dog 1942, time 2.0 h postdose): 58.6 µg/mL
Plasma levels of isoxicam (dog 1942, time 3.0 h postdose): 51.7 µg/mL
Plasma levels of isoxicam (dog 1942, time 4.0 h postdose): 53.9 µg/mL
Plasma levels of isoxicam (dog 1942, time 6.0 h postdose): 50.5 µg/mL
Plasma levels of isoxicam (dog 1942, time 8.0 h postdose): 42.2 µg/mL
Plasma levels of isoxicam (dog 1942, time 12.0 h postdose): 39.4 µg/mL
Plasma levels of isoxicam (dog 1942, time 24.0 h postdose): 35.6 µg/mL
Plasma levels of isoxicam (dog 1942, time 32.0 h postdose): 25.7 µg/mL
Plasma levels of isoxicam (dog 1942, time 48.0 h postdose): 25.5 µg/mL
Plasma levels of isoxicam (dog 1942, time 72.0 h postdose): 17.1 µg/mL
Plasma levels of isoxicam (dog 1942, time 96.0 h postdose): 8.96 µg/mL
Plasma levels of isoxicam (dog 1942, time 153.5 h postdose): 2.34 µg/mL
Plasma levels of isoxicam (dog 1942, time 192.0 h postdose): 1.28 µg/mL
Plasma levels of isoxicam (dog 1942, time 240.0 h postdose): 0.60 µg/mL
Plasma levels of isoxicam (dog 117668, row 192.0, actual time=193 hours): 0.85* µg/ml
Plasma levels of isoxicam (dog 117668, time 0.5 h postdose): 22.8 µg/mL
Plasma levels of isoxicam (dog 117668, time 1.0 h postdose): 42.6 µg/mL
Plasma levels of isoxicam (dog 117668, time 3.0 h postdose): 55.1 µg/mL
Plasma levels of isoxicam (dog 117668, time 4.0 h postdose): 59.3 µg/mL
Plasma levels of isoxicam (dog 117668, time 6.0 h postdose): 50.2 µg/mL
Plasma levels of isoxicam (dog 117668, time 8.0 h postdose): 63.0 µg/mL
Plasma levels of isoxicam (dog 117668, time 24.0 h postdose): 30.5 µg/mL
Plasma levels of isoxicam (dog 117668, time 32.0 h postdose): 29.6 µg/mL
Plasma levels of isoxicam (dog 117668, time 48.0 h postdose): 18.6 µg/mL
Plasma levels of isoxicam (dog 117668, time 72.0 h postdose): 10.7 µg/mL
Plasma levels of isoxicam (dog 117668, time 96.0 h postdose): 5.10 µg/mL
Plasma levels of isoxicam (dog 117668, time 153.5 h postdose): 1.27 µg/mL
Plasma levels of isoxicam (dog 117668, time 240.0 h postdose): 0.51 µg/mL
Plasma levels of isoxicam (dog 120064, row 192.0, actual time=193 hours): 2.17* µg/ml
Plasma levels of isoxicam (dog 120064, time 0.5 h postdose): 1.11 µg/mL
Plasma levels of isoxicam (dog 120064, time 1.0 h postdose): 15.5 µg/mL
Plasma levels of isoxicam (dog 120064, time 2.0 h postdose): 51.8 µg/mL
Plasma levels of isoxicam (dog 120064, time 3.0 h postdose): 46.3 µg/mL
Plasma levels of isoxicam (dog 120064, time 4.0 h postdose): 50.5 µg/mL
Plasma levels of isoxicam (dog 120064, time 6.0 h postdose): 49.6 µg/mL
Plasma levels of isoxicam (dog 120064, time 8.0 h postdose): 42.0 µg/mL
Plasma levels of isoxicam (dog 120064, time 24.0 h postdose): 31.3 µg/mL
Plasma levels of isoxicam (dog 120064, time 32.0 h postdose): 34.8 µg/mL
Plasma levels of isoxicam (dog 120064, time 48.0 h postdose): 21.5 µg/mL
Plasma levels of isoxicam (dog 120064, time 72.0 h postdose): 17.6 µg/mL
Plasma levels of isoxicam (dog 120064, time 96.0 h postdose): 9.39 µg/mL
Plasma levels of isoxicam (dog 120064, time 153.5 h postdose): 3.52 µg/mL
Plasma levels of isoxicam (dog 120064, time 240.0 h postdose): 1.26 µg/mL
AUC(0-inf) [1]: 2840 µg·h/mL
half-life (Mean of four dogs, oral 100 mg (free acid equivalents), elimination half-life, read-out: Half-life (converted)): 36.2 h
Cmax (Mean of four dogs, oral 100 mg (free acid equivalents), read-out: Cmax): 55300 ng/mL
Tmax [1]: 3 h
AUC(0-inf) [2]: 2910 µg·h/mL
half-life (dog 1930, oral 100 mg (free acid equivalents), elimination half-life, read-out: Half-life (converted)): 38.8 h
Cmax (dog 1930, oral 100 mg (free acid equivalents), read-out: Cmax): 51400 ng/mL
Tmax [2]: 2 h
AUC(0-inf) [3]: 2920 µg·h/mL
half-life (dog 1942, oral 100 mg (free acid equivalents), elimination half-life, read-out: Half-life (converted)): 34.4 h
Cmax (dog 1942, oral 100 mg (free acid equivalents), read-out: Cmax): 58600 ng/mL
Tmax [3]: 2 h
AUC(0-inf) [4]: 2590 µg·h/mL
half-life (dog 117668, oral 100 mg (free acid equivalents), elimination half-life, read-out: Half-life (converted)): 27 h
Cmax (dog 117668, oral 100 mg (free acid equivalents), read-out: Cmax): 59300 ng/mL
Tmax [4]: 6 h
AUC(0-inf) [5]: 2950 µg·h/mL
half-life (dog 120064, oral 100 mg (free acid equivalents), elimination half-life, read-out: Half-life (converted)): 44.8 h
Cmax (dog 120064, oral 100 mg (free acid equivalents), read-out: Cmax): 51800 ng/mL
Tmax [5]: 2 h
Cmax (four dogs, 100 mg oral, read-out: Mean Cmax): 56200 ± 5600 ng/mL
half-life (four dogs, 100 mg oral, read-out: Mean half-lives (elimination, linear regression of semilogarithmic data) (converted)): 36.2 ± 7.5 h
mean AUC^0-∞ (four dogs, 100 mg oral, trapezoidal rule extrapolated to infinity): 2840 ± 170 µg·h/mL
Plasma levels of isoxicam, Mean (time 0.5 h postdose): 15400 ng/mL
Plasma levels of isoxicam, Mean (time 1.0 h postdose): 32400 ng/mL
Plasma levels of isoxicam, Mean (time 2.0 h postdose): 53900 ng/mL
Plasma levels of isoxicam, Mean (time 3.0 h postdose): 50200 ng/mL
Plasma levels of isoxicam, Mean (time 4.0 h postdose): 53200 ng/mL
Plasma levels of isoxicam, Mean (time 6.0 h postdose): 49600 ng/mL
Plasma levels of isoxicam, Mean (time 8.0 h postdose): 47400 ng/mL
Plasma levels of isoxicam, Mean (time 12.0 h postdose): 38600 ng/mL
Plasma levels of isoxicam, Mean (time 24.0 h postdose): 32600 ng/mL
Plasma levels of isoxicam, Mean (time 32.0 h postdose): 28800 ng/mL
Plasma levels of isoxicam, Mean (time 48.0 h postdose): 22600 ng/mL
Plasma levels of isoxicam, Mean (time 72.0 h postdose): 15000 ng/mL
Plasma levels of isoxicam, Mean (time 96.0 h postdose): 8410 ng/mL
Plasma levels of isoxicam, Mean (time 153.5 h postdose): 2460 ng/mL
Plasma levels of isoxicam, Mean (time 192.0 h postdose (two dogs actually 193 hours)): 1460 ng/mL
Plasma levels of isoxicam, Mean (time 240.0 h postdose): 820 ng/mL
mean peak plasma concentration (reached at two hours postdose, 100 mg (free acid equivalents) per oral dose, dogs): 53.9±4.0 Ilg/ml
peak time (the final (fourth) animal, 100 mg oral): eight
peak time (three animals of four, 100 mg oral): two
